In the CheMixHub ionic liquid set:
± gives the uncertainty stated by the source.

Experiment: xn = mol fraction of the nth substance listed

CC(=O)[O-].CC[n+]1ccn(C)c1 + N#C[S-].[Na+]
101 kPa, x2 = 0
Settings	electrical conductivity [S/m]	viscosity [mPa·s]
303.15 K	0.374 ± 0.0075	93.6 ± 6.1
313.15 K	0.587 ± 0.012	55.5 ± 3.6

CC[NH+](CC)CC.O=S(=O)([O-])O + O
298.15 K, 101 kPa
Settings	viscosity [mPa·s]
x2 = 0.3012	184 ± 19
x2 = 0.4244	169 ± 17
x2 = 0.6124	140 ± 13
x2 = 0.7344	110.8 ± 9.6
x2 = 0.9244	39.8 ± 2.8

CCCN + CCCCCC[n+]1ccn(C)c1.F[B-](F)(F)F
298.15 K, 101 kPa
Settings	viscosity [mPa·s]
x1 = 0.1525	110 ± 3.9
x1 = 0.5052	29.08 ± 0.51
x1 = 0.9012	1.672 ± 0.016

ClCCCl + CCCC[n+]1ccn(C)c1.O=S(=O)([N-]S(=O)(=O)C(F)(F)F)C(F)(F)F
Settings	electrical conductivity [S/m]
294.5 K, 100 kPa, x2 = 0.02555	0.68 ± 0.07

CC[N+](CC)(CC)CC.[Cl-] + NCCCO
viscosity [mPa·s], 101.3 kPa
Settings	293.15 K	298.15 K	303.15 K	308.15 K	313.15 K	318.15 K	323.15 K	328.15 K	333.15 K
x2 = 0.8	55.2 ± 2.7	42.4 ± 2.6	32.9 ± 2.3	26.2 ± 2.2	21.2 ± 2.1	17.4 ± 2.1	14.4 ± 2.1	12.1 ± 2	10.3 ± 2
x2 = 0.8571	46.6 ± 2.7	35.8 ± 2.4	27.9 ± 2.3	22.3 ± 2.2	18 ± 2.1	14.8 ± 2.1	12.3 ± 2.1	10.4 ± 2	8.8 ± 2
x2 = 0.8889	43.4 ± 2.4	33.4 ± 2.1	26.1 ± 2.1	21 ± 2.1	16.9 ± 2	14 ± 2	11.6 ± 2	9.8 ± 2	8.3 ± 2

OC[C@H]1O[C@H](O[C@H]2[C@H](O)[C@@H](O)C(O)O[C@@H]2CO)[C@H](O)[C@@H](O)[C@@H]1O (stereo partly drawn) + CCCCCCCCCCCCCCCC[N+](C)(C)C.[Br-] + O
viscosity [mPa·s], 100 kPa
Settings	298.15 K	308.15 K	318.15 K
x2 = 7.13e-06, x1 = 0.002703	1.07 ± 0.062	0.885 ± 0.063	0.734 ± 0.061
x2 = 7.15e-06, x1 = 0.002359	1.048 ± 0.062	0.867 ± 0.061	0.719 ± 0.061
x2 = 7.16e-06, x1 = 0.001637	1.002 ± 0.062	0.829 ± 0.061	0.688 ± 0.061
x2 = 7.16e-06, x1 = 0.001964	1.023 ± 0.062	0.846 ± 0.061	0.702 ± 0.061
x2 = 7.18e-06, x1 = 0.0009633	0.958 ± 0.061	0.793 ± 0.061	0.659 ± 0.061
x2 = 7.18e-06, x1 = 0.001278	0.978 ± 0.061	0.809 ± 0.061	0.672 ± 0.061
x2 = 1.423e-05, x1 = 0.002657	1.073 ± 0.062	0.888 ± 0.062	0.736 ± 0.061
x2 = 1.424e-05, x1 = 0.002424	1.058 ± 0.062	0.875 ± 0.062	0.726 ± 0.061
x2 = 1.428e-05, x1 = 0.001986	1.029 ± 0.062	0.851 ± 0.061	0.706 ± 0.061
x2 = 1.43e-05, x1 = 0.001593	1.003 ± 0.062	0.83 ± 0.061	0.688 ± 0.061
x2 = 1.433e-05, x1 = 0.001228	0.979 ± 0.061	0.81 ± 0.061	0.672 ± 0.061
x2 = 1.435e-05, x1 = 0.0009418	0.96 ± 0.061	0.795 ± 0.061	0.659 ± 0.061
x2 = 2.126e-05, x1 = 0.002693	1.08 ± 0.062	0.894 ± 0.063	0.74 ± 0.061
x2 = 2.128e-05, x1 = 0.002482	1.066 ± 0.062	0.882 ± 0.062	0.73 ± 0.061
x2 = 2.135e-05, x1 = 0.001972	1.032 ± 0.062	0.854 ± 0.061	0.707 ± 0.061
x2 = 2.141e-05, x1 = 0.001636	1.01 ± 0.062	0.835 ± 0.061	0.692 ± 0.061
x2 = 2.143e-05, x1 = 0.001347	0.99 ± 0.061	0.819 ± 0.061	0.678 ± 0.061
x2 = 2.15e-05, x1 = 0.0008556	0.957 ± 0.061	0.792 ± 0.061	0.656 ± 0.061

CCCCn1cc[n+](CCOCCOCC[n+]2ccn(CCCC)c2)c1.O=S(=O)([N-]S(=O)(=O)C(F)(F)F)C(F)(F)F.O=S(=O)([N-]S(=O)(=O)C(F)(F)F)C(F)(F)F + CC[n+]1ccn(C)c1.N#C[N-]C#N + O=S(=O)([N-]S(=O)(=O)C(F)(F)F)C(F)(F)F.[Li+]
100 kPa, x1 = 0.1442, x2 = 0.7526
Settings	electrical conductivity [S/m]
298 K	0.677 ± 0.027
303 K	0.795 ± 0.032
313 K	1.05 ± 0.042
323 K	1.39 ± 0.056
333 K	1.71 ± 0.069
343 K	2.08 ± 0.083

CC(=O)[O-].[K+] + O + CCCC[n+]1ccn(C)c1.N#C[S-]
viscosity [mPa·s], 101 kPa
Settings	298.15 K	308.15 K	313.15 K
x1 = 0.01175, x2 = 0.8368	–	–	4.625 ± 0.064
x1 = 0.1054, x2 = 0.8943	3.195 ± 0.029	2.485 ± 0.023	–

CCCn1cc[n+](C)c1.[Br-] + CC1COC(=O)O1
298 K, 101 kPa
Settings	electrical conductivity [S/m]
x2 = 0.1	0.04 ± 0.03
x2 = 0.64	0.5 ± 0.04
x2 = 0.67	0.52 ± 0.04
x2 = 0.72	0.58 ± 0.05

CCCC[P+](CCCC)(CCCC)CCCC.CS(=O)(=O)[O-] + O=S1(=O)CCCC1
101.33 kPa, x1 = 0.5
Settings	viscosity [mPa·s]
303.15 K	136 ± 30
313.15 K	84 ± 17
323.15 K	50 ± 10
333.15 K	34.6 ± 7
343.25 K	24.6 ± 5
353.25 K	18.7 ± 3.8
